# Source: patent publication EP0262209B1, “SYNERGISTIC PLANT GROWTH REGULATOR COMPOSITIONS” (RHONE POULENC NEDERLAND B.V., priority 1986, dated 1987)
# How the values were obtained:
# mature tobacco plants = assay: Leaf ripening (chlorosis) of tobacco (Example XV, Table L); format: in vivo; conditions: Rate 1.0 Pounds per Acre, alone; upper three leaves; 7 days after treatment; control 10
# Description: Solutions of the test compounds and compositions identified in Table C below were prepared by dissolving the compounds in acetone/water (50:50 volume/volume) containing 0.1 percent volume/volume of Triton X-100 surfactant commercially available from Rhom and Haas Company, Philadelphia, Pennsylvania. As detailed below, these solutions of the test compounds and compositions were applied to snapbean plants at a concentration of 0.25 pounds of each active ingredient per acre (0.28 kg/ha) or 0.50 pounds of each active ingredient per acre (0.56 kg/ha). The compositions were applied to the snapbean plants as a mixture. […]
# (§1) Into 13.5 centimeter diameter plastic pots containing a potting soil mix, i.e., one-third sandy loam soil, one-third peat moss and one-third perlite by volume, were sown three snapbean seeds (Phaseolus vulgaris var. Cranberry). […] At 96 hours after treatment, percent defoliation of the snapbean plants was determined by visual observation. […]
# In a manner similar to the procedure described in Example VI except that mature tobacco plants were used in place of snapbean plants, the leaf ripening effect of tobacco was determined for representative synergistic compositions at various rates of application. […] Percent tobacco leaf ripening (chlorosis) was determined by visual observation of the upper three leaves of the tobacco plant at 7 days after treatment. […]
# cotton [1] = assay: Defoliation of cotton at various rates (Example XIII, Table J); format: in vivo; conditions: Rate 0.5 Pounds per Acre, alone
# Description: (§2) Solutions of the test compounds and compositions identified in Table F were prepared by dissolving the compounds in acetone/water (50:50 volume/volume) containing 0.1 percent volume/volume of Surfel® spray adjuvant commercially available from Union Carbide Corporation, Danbury, Connecticut. As detailed below, these solutions of test compounds and compositions were applied to cotton plants at a concentration of 0.5 pounds of each active ingredient per acre (0,6 kg/ha) or 2.0 pounds of active ingredient per acre (2,2 kg/ha). The compositions were applied to cotton as mixtures.
# (§3) The above solutions were applied to cotton plants growing under field conditions at a spray volume equivalent to 100 gallons per acre 935 l/ha) by use of a carbon dioxide backpack sprayer set at about 30 psig air pressure (2 bar). The application timing coincided with a cotton maturity phase equivalent to about 40 percent open bolls. As a control, a water-acetone solution containing no test compound or composition was also sprayed on the cotton plants. At four days after treatment, percent defoliation of the cotton plants was determined by visual observation. At 14 days after treatment, percent boll opening was determined by visual observation of the number of open bolls/total number of bolls. The percent defoliation and percent boll opening values obtained for the control and each of the test compounds and compositions are reported in Table F as the average of three replications. TABLE F
# In a manner similar to the procedure described in Example IX , the defoliation effect on cotton was determined for representative synergistic compositions at various rates of application. TABLE J
# snapbean plants [2] = assay: Combination/sequential applications, defoliation of snapbean plants (Example VIII, Table E); format: in vivo, Phaseolus vulgaris var. Cranberry; conditions: Rate 0.5 Pounds per Acre, applied alone
# Description: (§4) Solutions of the test compounds and compositions identified in Table C below were prepared by dissolving the compounds in acetone/water (50:50 volume/volume) containing 0.1 percent volume/volume of Triton X-100 surfactant commercially available from Rhom and Haas Company, Philadelphia, Pennsylvania. As detailed below, these solutions of the test compounds and compositions were applied to snapbean plants at a concentration of 0.25 pounds of each active ingredient per acre (0.28 kg/ha) or 0.50 pounds of each active ingredient per acre (0.56 kg/ha). The compositions were applied to the snapbean plants as a mixture. Ethephon is commercially available from Union Carbide Agricultural Products Company, Inc., Research Triangle Park, North Carolina.
# as §1, with “Cranberry). Five to seven days after planting, the plants were thinned to one plant per pot.” for “Cranberry).”
# In a manner similar to the procedure described in Example VI , the defoliation effect on snapbean plants was determined for representative synergistic compositions using both combination (tank mix) and sequential application methods. […]
# snapbean plants [3] = assay: Defoliation of snapbean plants with various ethylene releasing agents (Example XVI, Table M); format: in vivo, Phaseolus vulgaris var. Cranberry
# Description: as §4
# (§5) Into 13.5 centimeter diameter plastic pots containing a potting soil mix, i.e., one-third sandy loam soil, one-third peat moss and one-third perlite by volume, were sown three snapbean seeds (Phaseolus vulgaris var. Cranberry). Five to seven days after planting, the plants were thinned to one plant per pot. Ten to fourteen days after planting at the time of full expansion of the primary leaves, each concentration of the test compounds and compositions identified in […] (each pot sprayed with a volume equivalent to 180 gallons per acre) - i.e. 1683 l/ha was applied to three snapbean plants as a foliar spray by use of an aspirated spray apparatus set at 10 psig air pressure (517 mmHg). As a control, a water-acetone solution containing no test compound or composition was also sprayed on three snapbean plants. When dry, all or the plants were placed in a greenhouse at a temperature of 80°F ± 5°F (27°C ± 3°C) and humidity of 50 percent ± 5 percent. At 96 hours after treatment, percent defoliation of the snapbean plants was determined by visual observation. The values obtained For the control and each test compound and composition were averaged to obtain the results in Table C.
# In a manner similar to the procedure described in Example VI , the defoliation effect on snapbean plants was determined for representative synergistic compositions at various rates of application using various ethylene releasing agents identified in Table M below. The ethylene releasing agents used in […] are known materials which can be prepared by conventional methods.
# snapbean plants [4] = assay: Defoliation of snapbean plants at various rates, 72 hours (Example VII, Table D); format: in vivo, Phaseolus vulgaris var. Cranberry; conditions: 72 hours after treatment
# Description: as §4, §5
# In a manner similar to the procedure described in Example VI, the defoliation effect on snapbean plants was determined for representative synergistic compositions at various rates of application except that percent defoliation of the snapbean plants was determined at 72 hours after treatment. TABLE D
# snapbean plants [5] = assay: Defoliation of snapbean plants, foliar spray (Example VI, Table C); format: in vivo, Phaseolus vulgaris var. Cranberry; conditions: Phaseolus vulgaris, foliar, 96 h, read-out: Percent Defoliation
# Description: as §4, §5
# cotton plant = assay: Regrowth of cotton following defoliation, DEF treated plant as standard (Example XIV, Table K); format: in vivo; conditions: for Percent Stimulation: regrowth relative to DEF standard (43 percent), 30 days after treatment
# Description: as §2, §3
# In a manner similar to the procedure described in Example IX , the effect of cotton regrowth after defoliation was determined for representative synergistic compositions at various rates of application. The percent regrowth inhibition and stimulation in Table R below were determined by visual observation based on the percent of a cotton plant having regrowth using a DEF treated cotton plant as the standard. DEF is commercially available from Mobay Chemical Corporation, Kansas City, Missouri. The average regrowth of a cotton plant treated with DEF was 43 percent. As used in Table R, percent regrowth inhibition resulted from a cotton plant having a regrowth percentage less than 43 percent (DEF standard), and percent regrowth stimulation resulted from a cotton plant having a regrowth percentage greater than 43 percent. The percent regrowth inhibition and stimulation were determined 30 days after treatment.
# rank growth cotton = assay: Defoliation of cotton (rank growth) (Example X, Table G); format: in vivo; conditions: Rate 2.0 Pounds per Acre
# Description: as §2, §3
# In a manner similar to the procedure described in Example IX , the defoliation effect on rank growth cotton was determined for representative synergistic compositions at various rates of application. […] TABLE G
# cotton [6] = assay: Defoliation of cotton at various rates (Example XII, Table I); format: in vivo; conditions: Rate 0.5 Pounds per Acre, alone
# Description: as §2, §3
# In a manner similar to the procedure described in Example IX , the defoliation effect on cotton was determined for representative synergistic compositions at various rates of application.
# cotton plants = assay: Defoliation and boll opening of cotton under field conditions (Example IX, Table F); format: in vivo; conditions: Rate 2.0 Pounds per Acre
# Description: as §2, §3
# cotton [7] = assay: Sequential applications, defoliation of cotton (Example XI, Table H); format: in vivo; conditions: Rate 0.25 Pounds per Acre, alone
# Description: In a manner similar to the procedure described in Example VI , the defoliation effect on snapbean plants was determined for representative synergistic compositions using both combination (tank mix) and sequential application methods. In the sequential application method, the second compound was applied 78 hours after the first compound. TABLE E
# In a manner similar to the procedure described in Example VIII , the defoliation effect on cotton was determined for representative synergistic compositions using sequential application. Ethephon applications were made 7 days after application of the particular malonic acid derivative compound. TABLE H
# [8] = Gossypium hirsutum, 720 h, read-out: Percent Inhibition
smiles,measurement,setting,value
"O=P(O)(O)CCCl [Ethephon, 2-chloroethylphosphonic acid, reference compound]",Percent Ripening (Chlorosis),mature tobacco plants,10%
same,Percent Defoliation,cotton [1],5%
same,Percent Defoliation,snapbean plants [2],0%
same,Percent Defoliation,snapbean plants [3]; Rate 0.125 Pounds per Acre,0%
same,Percent Defoliation,snapbean plants [3]; Rate 0.25 Pounds per Acre,0%
same,Percent Defoliation,snapbean plants [3]; Rate 0.50 Pounds per Acre,0%
same,Percent Defoliation,snapbean plants [4]; Rate 0.25 Pounds per Acre,0%
same,Percent Defoliation,snapbean plants [4]; Rate 0.50 Pounds per Acre,0%
same,pest or weed control at 280.212 g/ha,snapbean plants [5],0%
same,pest or weed control at 560.425 g/ha,snapbean plants [5],21%
same,inhibition at 560.425 g/ha,cotton plant; [8],0%
same,inhibition at 1120.85 g/ha,cotton plant; [8],0%
same,inhibition at 2241.7 g/ha,cotton plant; [8],0%
same,Percent Stimulation,cotton plant; Rate 0.5 Pounds per Acre,16%
same,Percent Stimulation,cotton plant; Rate 1.0 Pounds per Acre,70%
same,Percent Stimulation,cotton plant; Rate 2.0 Pounds per Acre,62%
same,Percent Defoliation,rank growth cotton,12%
same,Percent Defoliation,cotton [6],13%
same,Percent Boil Opening,"cotton plants; 14 days after treatment, control 41",64%
same,Percent Defoliation,"cotton plants; field conditions, four days after treatment",5%
same,Percent Defoliation,cotton [7],3%
